Laboratory results reported in patent publication US10676465B2, “GLP-1 receptor agonists and uses thereof” (Pfizer Inc., priority 2018, dated 2020).
Where two headings read alike, the source gives them in different places. Blank lines part the entries; values can stand above or below the molecule they belong to.

Key:
human GLP-1R [1] = molecular target: human GLP-1R (Homo sapiens, UniProt P43220, G168S); experiment: CHO GLP-1R Clone H6 - Assay 1 (HTRF cAMP agonist assay); assay type: cell-based; conditions: for EC50: CHO GLP-1R Clone H6, cAMP HTRF, geometric mean
Procedure: GLP-1R-mediated agonist activity was determined with a cell-based functional assay utilizing an HTRF (Homogeneous Time-Resolved Fluorescence) cAMP detection kit (cAMP HI Range Assay Kit; CisBio cat #62AM6PEJ) that measures cAMP levels in the cell. The method is a competitive immunoassay between native cAMP produced by the cells and exogenous cAMP labeled with the dye d2. The tracer binding is visualized by a mAb anti-cAMP labeled with Cryptate. The specific signal (i.e. energy transfer) is inversely proportional to the concentration of cAMP in either standard or experimental sample.
The human GLP-1R coding sequence (NCBI Reference Sequence NP_002053.3, including naturally-occurring variant Gly168Ser) was subcloned into pcDNA3 (Invitrogen) and a cell line stably expressing the receptor was isolated (designated Clone H6).
Cells were removed from cryopreservation, re-suspended in 40 mL of Dulbecco's Phosphate Buffered Saline (DPBS—Lonza Cat #17-512Q) and centrifuged at 800×g for 5 minutes at 22° C. The cell pellet was then re-suspended in 10 mL of growth medium [DMEM/F12 1:1 Mixture with HEPES, L-Gln, 500 mL (DMEM/F12 Lonza Cat #12-719F), 10% heat inactivated fetal bovine serum (Gibco Cat #16140-071), 5 mL of 100× Pen-Strep (Gibco Cat #15140-122), 5 mL of 100×L-Glutamine (Gibco Cat #25030-081) and 500 μg/mL Geneticin (G418) (Invitrogen #10131035)]. A 1 mL sample of the cell suspension in growth media was counted on a Becton Dickinson ViCell to determine cell viability and cell count per mL. The remaining cell suspension was then adjusted with growth media to deliver 2000 viable cells per well using a Matrix Combi Multidrop reagent dispenser, and the cells were dispensed into a white 384 well tissue culture treated assay plate (Corning 3570). The assay plate was then incubated for 48 hours at 37° C. in a humidified environment in 5% carbon dioxide.
Varying concentrations of each compound to be tested (in DMSO) were diluted in assay buffer (HBSS with Calcium/Magnesium (Lonza/BioWhittaker cat #10-527F)/0.1% BSA (Sigma Aldrich cat # A7409-1L)/20 mM HEPES (Lonza/BioWhittaker cat #17-737E) containing 100 μM 3-isobutyl-1-methylxanthin (IBMX; Sigma cat #15879). The final DMSO concentration is 1%.
After 48 hours, the growth media was removed from the assay plate wells, and the cells were treated with 20 μL of the serially diluted compound in assay buffer for 30 minutes at 37° C. in a humidified environment in 5% carbon dioxide. Following the 30 minute incubation, 10 μL of labeled d2 cAMP and 10 μL of anti-cAMP antibody (both diluted 1:20 in cell lysis buffer; as described in the manufacturer's assay protocol) were added to each well of the assay plate. The plates were then incubated at room temperature and after 60 minutes, changes in the HTRF signal were read with an Envision 2104 multi-label plate reader using excitation of 330 nm and emissions of 615 and 665 nm. Raw data were converted to nM cAMP by interpolation from a cAMP standard curve (as described in the manufacturer's assay protocol) and the percent effect was determined relative to a saturating concentration of the full agonist GLP-17-36 (1 μM) included on each plate. EC50 determinations were made from agonist dose-response curves analyzed with a curve fitting program using a 4-parameter logistic dose response equation.

human GLP-1R [2] = molecular target: human GLP-1R (Homo sapiens (Human), UniProt P43220, L260F); experiment: CHO GLP-1R Clone C6 - Assay 2 (HTRF cAMP agonist assay, low receptor density); conditions: for EC50: CHO GLP-1R Clone C6 (low receptor density), cAMP HTRF, geometric mean; for Emax: read-out: Assay 2 Emax (%), CHO GLP-1R Clone C6 (low receptor density), arithmetic mean, relative to saturating GLP-1 (1 μM)
[3] = CHO GLP-1R Clone H6, arithmetic mean, relative to saturating GLP-1 (1 μM)

Sequence of human GLP-1R (Homo sapiens (Human), UniProt P43220, L260F) (P43220 24-463 L260F): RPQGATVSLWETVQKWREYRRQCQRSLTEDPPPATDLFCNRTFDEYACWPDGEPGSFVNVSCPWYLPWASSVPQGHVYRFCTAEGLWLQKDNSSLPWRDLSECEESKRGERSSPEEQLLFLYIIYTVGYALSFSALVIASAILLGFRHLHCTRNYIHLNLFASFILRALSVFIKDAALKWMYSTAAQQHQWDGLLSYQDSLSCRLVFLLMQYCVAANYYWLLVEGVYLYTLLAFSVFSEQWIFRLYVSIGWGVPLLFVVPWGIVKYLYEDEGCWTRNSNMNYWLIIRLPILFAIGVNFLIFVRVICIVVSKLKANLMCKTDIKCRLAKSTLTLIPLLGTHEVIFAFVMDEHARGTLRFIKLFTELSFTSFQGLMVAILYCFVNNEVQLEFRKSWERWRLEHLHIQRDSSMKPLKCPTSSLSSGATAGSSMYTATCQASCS
Sequence of human GLP-1R (Homo sapiens, UniProt P43220, G168S) (P43220 24-463 G168S limits assumed): as the sequence (P43220 24-463 L260F) above, with G145S, F237L counted along it

SMILES: CNC(=O)Cn1c(CN2CCC(c3cccc4c3OC(C)(c3ccc(Cl)cc3F)O4)CC2)nc2ccc(C(=O)O)cc21 (stereo not drawn) [Example 52, 2-({4-[2-(4-chloro-2-fluorophenyl)-2-methyl-1,3-benzodioxol-4-yl]piperidin-1-yl}methyl)-1-[2-(methylamino)-2-oxoethyl]-1H-benzimidazole-6-carboxylic acid]
EC50 (human GLP-1R [1]): 32 nM | Emax (human GLP-1R [1]; [3]): 85% | EC50 (human GLP-1R [2]; read-out: Assay 2 EC50): 570 nM | Emax (human GLP-1R [2]): 80%

SMILES: COCc1cc(Cn2c(CN3CCC(c4cccc5c4OC(C)(c4ccc(Cl)cc4F)O5)CC3)nc3ccc(C(=O)O)cc32)[nH]n1 (stereo not drawn) [Example 68, 2-({4-[2-(4-chloro-2-fluorophenyl)-2-methyl-1,3-benzodioxol-4-yl]piperidin-1-yl}methyl)-1-{[3-(methoxymethyl)-1H-pyrazol-5-yl]methyl}-1H-benzimidazole-6-carboxylic acid]
EC50 (human GLP-1R [1]): 73 nM | Emax (human GLP-1R [1]; [3]): 89% | EC50 (human GLP-1R [2]; read-out: Assay 2 EC50): 1200 nM | Emax (human GLP-1R [2]): 94%

SMILES: COCCn1c(CN2CCC(c3cccc4c3OC(C)(c3ccccc3C)O4)CC2)nc2ccc(C(=O)O)cc21 (stereo not drawn) [Example 88, 1-(2-methoxyethyl)-2-({4-[2-methyl-2-(2-methylphenyl)-1,3-benzodioxol-4-yl]piperidin-1-yl}methyl)-1H-benzimidazole-6-carboxylic acid]
EC50 (human GLP-1R [1]): 17 nM | Emax (human GLP-1R [1]; [3]): 86% | EC50 (human GLP-1R [2]; read-out: Assay 2 EC50): 360 nM | Emax (human GLP-1R [2]): 91%

SMILES: COCCn1c(CN2CCC(c3cccc4c3OC(C)(c3cccc(F)c3)O4)CC2)nc2ccc(C(=O)O)cc21 (stereo not drawn) [Example 31, 2-({4-[2-(3-fluorophenyl)-2-methyl-1,3-benzodioxol-4-yl]piperidin-1-yl}methyl)-1-(2-methoxyethyl)-1H-benzimidazole-6-carboxylic acid]
EC50 (human GLP-1R [1]): 190 nM | Emax (human GLP-1R [1]; [3]): 88% | EC50 (human GLP-1R [2]; read-out: Assay 2 EC50): 1900 nM | Emax (human GLP-1R [2]): 65%

Molecules with a lower EC50 (human GLP-1R [1]), results first:

EC50 (human GLP-1R [1]): 7 nM | Emax (human GLP-1R [1]; [3]): 95% | EC50 (human GLP-1R [2]; read-out: Assay 2 EC50): 79 nM | Emax (human GLP-1R [2]): 85%
SMILES: Cn1c(CN2CCC(c3cccc4c3O[C@@](C)(c3ccc(Cl)cc3F)O4)CC2)nc2ccc(C(=O)O)cc21 [Example 14, 2-({4-[(2S)-2-(4-Chloro-2-fluorophenyl)-2-methyl-1,3-benzodioxol-4-yl]piperidin-1-yl}methyl)-1-methyl-1H-benzimidazole-6-carboxylic Acid]

EC50 (human GLP-1R [1]): 5.2 nM | Emax (human GLP-1R [1]; [3]): 95% | EC50 (human GLP-1R [2]; read-out: Assay 2 EC50): 57 nM | Emax (human GLP-1R [2]): 96%
SMILES: CC1(c2ccc(Cl)cc2F)Oc2cccc(C3CCN(Cc4nc5ccc(C(=O)O)cc5n4CCN4CCOC4=O)CC3)c2O1 (stereo not drawn) [Example 46, 2-({4-[2-(4-chloro-2-fluorophenyl)-2-methyl-1,3-benzodioxol-4-yl]piperidin-1-yl}methyl)-1-[2-(2-oxo-1,3-oxazolidin-3-yl)ethyl]-1H-benzimidazole-6-carboxylic acid]

EC50 (human GLP-1R [1]): 4.5 nM | Emax (human GLP-1R [1]; [3]): 95% | EC50 (human GLP-1R [2]; Assay 2 EC50 (nM)): 38 nM | Emax (human GLP-1R [2]): 110%
SMILES: CC1(c2ccc(Cl)cc2F)Oc2cccc(C3CCN(Cc4nc5ccc(C(=O)O)nc5n4Cc4ncco4)CC3)c2O1 (stereo not drawn) [Example 13, 2-({4-[2-(4-Chloro-2-fluorophenyl)-2-methyl-1,3-benzodioxol-4-yl]piperidin-1-yl}methyl)-3-(1,3-oxazol-2-ylmethyl)-3H-imidazo[4,5-b]pyridine-5-carboxylic Acid]

EC50 (human GLP-1R [1]): 6.6 nM | Assay 1 Emax (%) (human GLP-1R [1]; [3]): 81% | EC50 (human GLP-1R [2]; Assay 2 EC50 (nM)): 260 nM | Emax (human GLP-1R [2]): 100%
SMILES: COCCn1c(CN2CCN(c3cccc4c3OC(c3ccc(Cl)cc3F)O4)CC2)nc2ccc(C(=O)O)cc21 (single isomer, unassigned) [Example 2, 2-({4-[2-(4-Chloro-2-fluorophenyl)-1,3-benzodioxol-4-yl]piperazin-1-yl}methyl)-1-(2-methoxyethyl)-1H-benzimidazole-6-carboxylic Acid]

EC50 (human GLP-1R [1]): 1.2 nM | Emax (human GLP-1R [1]; [3]): 87% | EC50 (human GLP-1R [2]; read-out: Assay 2 EC50): 25 nM | Emax (human GLP-1R [2]): 100%
SMILES: COCCn1c(CN2CCN(c3cccc4c3OC(C)(c3ccc(Cl)cc3F)O4)CC2)nc2ccc(C(=O)O)cc21 (stereo not drawn) [Example 19, 2-({4-[2-(4-chloro-2-fluorophenyl)-2-methyl-1,3-benzodioxol-4-yl]piperazin-1-yl}methyl)-1-(2-methoxyethyl)-1H-benzimidazole-6-carboxylic acid]
